One may read the IC50 as the concentration at which inhibition is half-maximal. The term Ki denotes the equilibrium dissociation constant of an inhibitor or competing ligand from its target.

These results are taken from ChEMBL document CHEMBL1909046, “DrugMatrix in vitro pharmacology data”.

One series concerns the target Cytochrome P450 2C19 (Homo sapiens, UniProt P33261). Conditions: bti-tn-5b1-4. Also: in other assays of this panel Not Active means under 50% inhibition at 10 µM.
The next series addresses T1, Interstitial collagenase (Homo sapiens, UniProt P03956).
T1 sequence (P03956 whole entry): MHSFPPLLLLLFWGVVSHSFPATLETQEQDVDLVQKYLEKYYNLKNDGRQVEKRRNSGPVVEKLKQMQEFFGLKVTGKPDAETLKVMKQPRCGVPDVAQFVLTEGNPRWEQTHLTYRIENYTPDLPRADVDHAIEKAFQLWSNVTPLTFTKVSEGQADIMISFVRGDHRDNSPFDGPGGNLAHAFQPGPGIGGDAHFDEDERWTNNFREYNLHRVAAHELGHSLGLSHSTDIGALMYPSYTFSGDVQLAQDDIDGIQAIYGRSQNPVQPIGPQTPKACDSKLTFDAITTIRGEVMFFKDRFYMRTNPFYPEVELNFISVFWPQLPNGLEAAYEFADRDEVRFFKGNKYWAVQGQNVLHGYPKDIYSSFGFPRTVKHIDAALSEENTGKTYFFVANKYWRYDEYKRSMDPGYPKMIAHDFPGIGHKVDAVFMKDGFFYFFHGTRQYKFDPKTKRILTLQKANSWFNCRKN
Put plainly: biochemical. The series is classed as tissue-based, Rheumatoid synovial fibroblasts.

The target of the next series is T2, Glucocorticoid receptor (Homo sapiens, UniProt P04150). Also: in other assays of this panel Not Active means under 50% inhibition at 10 µM.
T2 sequence (P04150 whole entry): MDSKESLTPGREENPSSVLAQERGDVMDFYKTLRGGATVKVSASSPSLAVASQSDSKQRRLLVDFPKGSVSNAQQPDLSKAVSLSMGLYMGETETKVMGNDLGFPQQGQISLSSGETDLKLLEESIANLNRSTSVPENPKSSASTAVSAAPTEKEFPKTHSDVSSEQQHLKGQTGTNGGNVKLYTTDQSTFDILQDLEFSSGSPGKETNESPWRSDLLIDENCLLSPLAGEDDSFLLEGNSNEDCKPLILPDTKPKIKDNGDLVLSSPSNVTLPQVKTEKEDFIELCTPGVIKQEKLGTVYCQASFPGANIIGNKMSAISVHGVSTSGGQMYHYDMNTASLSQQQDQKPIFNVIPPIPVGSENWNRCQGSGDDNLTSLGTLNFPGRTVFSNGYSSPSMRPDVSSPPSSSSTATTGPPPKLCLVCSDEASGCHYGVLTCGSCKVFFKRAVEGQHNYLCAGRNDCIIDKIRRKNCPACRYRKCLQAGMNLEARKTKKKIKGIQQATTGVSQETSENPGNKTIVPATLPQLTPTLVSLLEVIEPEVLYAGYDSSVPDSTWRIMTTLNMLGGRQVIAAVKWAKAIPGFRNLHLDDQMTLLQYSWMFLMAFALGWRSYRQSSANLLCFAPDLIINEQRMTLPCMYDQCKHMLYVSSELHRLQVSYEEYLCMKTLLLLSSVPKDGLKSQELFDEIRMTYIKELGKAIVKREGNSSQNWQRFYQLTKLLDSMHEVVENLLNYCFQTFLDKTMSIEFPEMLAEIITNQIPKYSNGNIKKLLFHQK
The conditions noted are these: hela s3.

In another series the target is T3, Progesterone receptor (Bos taurus, UniProt Q690N0).
T3 sequence (Q690N0 whole entry): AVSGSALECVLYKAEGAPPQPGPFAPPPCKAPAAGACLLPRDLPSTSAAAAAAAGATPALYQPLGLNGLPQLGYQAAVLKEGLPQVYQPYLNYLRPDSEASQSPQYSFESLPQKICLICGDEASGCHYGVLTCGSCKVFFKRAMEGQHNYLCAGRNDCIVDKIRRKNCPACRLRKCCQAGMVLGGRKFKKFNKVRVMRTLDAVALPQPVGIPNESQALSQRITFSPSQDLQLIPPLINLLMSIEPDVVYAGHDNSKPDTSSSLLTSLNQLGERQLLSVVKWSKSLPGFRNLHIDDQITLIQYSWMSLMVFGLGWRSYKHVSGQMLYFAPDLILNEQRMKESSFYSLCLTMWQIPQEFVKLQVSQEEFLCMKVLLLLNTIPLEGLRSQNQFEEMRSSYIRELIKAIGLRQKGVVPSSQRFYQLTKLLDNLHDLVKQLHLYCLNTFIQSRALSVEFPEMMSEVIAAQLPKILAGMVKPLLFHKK
Kind of series: DRUGMATRIX: Progesterone radioligand binding (ligand: [3H] R-5020). It is filed as tissue-based, Uterus. Conditions: Not Active = under 50% inhibition at 10 µM.

Series [1] in a line: DRUGMATRIX: Sigma2 radioligand binding (ligand: [3H] Ifenprodil). It is filed as cell membranes, Rattus norvegicus, Wistar, Brain, Membrane. Conditions: Not Active = under 50% inhibition at 10 µM.
The target in another series is Nitric oxide synthase 1 (Rattus norvegicus, UniProt P29476). The series is classed as tissue-based, Cerebellum. Also: in other assays of this panel Not Active means under 50% inhibition at 10 µM.
Chain of Nitric oxide synthase 1 (P29476 whole entry): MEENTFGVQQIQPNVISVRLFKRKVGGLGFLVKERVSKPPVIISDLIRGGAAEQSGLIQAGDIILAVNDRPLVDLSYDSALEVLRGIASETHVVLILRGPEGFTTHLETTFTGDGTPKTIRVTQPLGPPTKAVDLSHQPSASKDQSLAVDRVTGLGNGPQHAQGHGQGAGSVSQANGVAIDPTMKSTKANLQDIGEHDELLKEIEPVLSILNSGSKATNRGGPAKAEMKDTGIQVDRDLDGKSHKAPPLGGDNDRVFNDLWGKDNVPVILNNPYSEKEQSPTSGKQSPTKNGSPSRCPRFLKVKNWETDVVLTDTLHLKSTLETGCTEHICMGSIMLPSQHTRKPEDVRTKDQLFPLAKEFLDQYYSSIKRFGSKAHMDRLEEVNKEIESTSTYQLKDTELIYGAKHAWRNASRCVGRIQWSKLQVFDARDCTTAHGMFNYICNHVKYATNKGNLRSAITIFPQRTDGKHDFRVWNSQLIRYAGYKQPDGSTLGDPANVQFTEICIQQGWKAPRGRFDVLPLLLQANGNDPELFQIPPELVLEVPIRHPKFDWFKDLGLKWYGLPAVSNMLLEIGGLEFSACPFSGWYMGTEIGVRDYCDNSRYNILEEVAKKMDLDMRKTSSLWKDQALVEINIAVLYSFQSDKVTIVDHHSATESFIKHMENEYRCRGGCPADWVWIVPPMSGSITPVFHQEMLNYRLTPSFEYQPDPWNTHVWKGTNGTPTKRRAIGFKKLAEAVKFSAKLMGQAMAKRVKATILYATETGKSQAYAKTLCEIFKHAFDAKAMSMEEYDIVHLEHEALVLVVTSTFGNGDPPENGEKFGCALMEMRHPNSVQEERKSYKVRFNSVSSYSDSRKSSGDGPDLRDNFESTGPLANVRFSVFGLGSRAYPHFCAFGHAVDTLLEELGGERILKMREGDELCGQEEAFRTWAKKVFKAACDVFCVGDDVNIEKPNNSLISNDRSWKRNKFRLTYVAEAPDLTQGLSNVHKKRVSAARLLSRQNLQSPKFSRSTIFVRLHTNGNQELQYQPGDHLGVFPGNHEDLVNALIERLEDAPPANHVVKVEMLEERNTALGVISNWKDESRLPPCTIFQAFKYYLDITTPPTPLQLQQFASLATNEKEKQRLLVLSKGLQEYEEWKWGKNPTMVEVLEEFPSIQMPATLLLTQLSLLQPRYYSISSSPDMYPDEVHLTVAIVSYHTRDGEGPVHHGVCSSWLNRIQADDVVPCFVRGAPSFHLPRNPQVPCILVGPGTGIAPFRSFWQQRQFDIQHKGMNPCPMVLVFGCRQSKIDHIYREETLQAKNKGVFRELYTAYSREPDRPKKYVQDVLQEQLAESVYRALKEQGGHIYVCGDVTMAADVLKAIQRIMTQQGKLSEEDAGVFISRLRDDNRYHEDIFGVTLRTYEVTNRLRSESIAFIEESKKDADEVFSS
In a further series the target is T4, Cytochrome P450 1A2 (Homo sapiens, UniProt P05177). Also: in other assays of this panel Not Active means under 50% inhibition at 10 µM.
T4 sequence (P05177 whole entry): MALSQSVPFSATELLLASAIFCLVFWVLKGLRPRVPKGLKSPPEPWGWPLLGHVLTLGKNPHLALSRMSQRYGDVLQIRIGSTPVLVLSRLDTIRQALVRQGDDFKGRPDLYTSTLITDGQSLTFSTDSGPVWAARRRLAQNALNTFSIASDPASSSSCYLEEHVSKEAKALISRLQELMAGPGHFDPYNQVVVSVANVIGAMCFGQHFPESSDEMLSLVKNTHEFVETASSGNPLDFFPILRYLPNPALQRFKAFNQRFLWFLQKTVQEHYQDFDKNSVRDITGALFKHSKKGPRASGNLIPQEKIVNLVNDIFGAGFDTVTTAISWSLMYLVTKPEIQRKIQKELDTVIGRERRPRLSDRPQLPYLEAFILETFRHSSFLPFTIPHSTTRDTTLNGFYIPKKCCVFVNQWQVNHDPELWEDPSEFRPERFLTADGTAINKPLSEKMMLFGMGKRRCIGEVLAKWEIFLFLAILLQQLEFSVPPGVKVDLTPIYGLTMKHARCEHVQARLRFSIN
The conditions noted are these: bti-tn-5b1-4.

Chain of Cytochrome P450 2C19 (P33261 whole entry): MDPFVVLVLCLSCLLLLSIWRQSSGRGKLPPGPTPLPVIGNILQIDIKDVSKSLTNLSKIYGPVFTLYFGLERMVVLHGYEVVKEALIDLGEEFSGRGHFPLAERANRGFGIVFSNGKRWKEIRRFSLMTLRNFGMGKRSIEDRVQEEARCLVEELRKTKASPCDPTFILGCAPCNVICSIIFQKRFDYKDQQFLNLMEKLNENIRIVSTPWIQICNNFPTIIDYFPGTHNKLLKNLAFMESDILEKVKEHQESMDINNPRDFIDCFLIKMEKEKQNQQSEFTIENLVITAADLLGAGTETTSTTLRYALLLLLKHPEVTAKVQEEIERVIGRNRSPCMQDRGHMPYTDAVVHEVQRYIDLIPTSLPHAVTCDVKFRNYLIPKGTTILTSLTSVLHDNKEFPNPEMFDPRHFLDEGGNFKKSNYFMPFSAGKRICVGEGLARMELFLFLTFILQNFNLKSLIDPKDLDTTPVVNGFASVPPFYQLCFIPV

On to `Cc1ccc(-c2cc(C(F)(F)F)nn2-c2ccc(S(N)(=O)=O)cc2)cc1` [CELECOXIB], for which the IC50 entry on Cytochrome P450 2C19 is “Not Active”; on Interstitial collagenase, “Not Active”; against Glucocorticoid receptor it was “Not Active”; on Progesterone receptor (read-out: IC50), 18.1 µM; in series [1] it was “Not Active”; against Nitric oxide synthase 1 it was “Not Active”. For the same molecule, at Cytochrome P450 1A2, the IC50 entry is recorded as “Not Active”. The inhibitory constant (Ki) result on Cytochrome P450 2C19 was “Not Active”; on Progesterone receptor (read-out: Ki), 2360 nM; in series [1], “Not Active”; at Cytochrome P450 1A2, “Not Active”.
For `Cc1onc(-c2ccccc2Cl)c1C(=O)N[C@@H]1C(=O)N2[C@@H]1SC(C)(C)[C@@H]2C(=O)O` [CLOXACILLIN], the IC50 entry (at Cytochrome P450 2C19; at Interstitial collagenase; at Glucocorticoid receptor; at Progesterone receptor; in series [1]; on Nitric oxide synthase 1) was “Not Active” in each case. In addition, on Cytochrome P450 1A2, the half-inhibitory concentration (IC50) entry is given as “Not Active”. Also, the Ki entry (on Cytochrome P450 2C19; in series [1]; at Cytochrome P450 1A2) was “Not Active” in each case.
`CCCN1C[C@H](CSC)C[C@@H]2c3cccc4[nH]cc(c34)C[C@H]21` [PERGOLIDE]: the 50% inhibitory concentration (IC50) result (on Cytochrome P450 2C19; at Interstitial collagenase; against Glucocorticoid receptor; on Progesterone receptor; in series [1]; at Nitric oxide synthase 1) was “Not Active” each time. Moreover, the IC50 entry on Cytochrome P450 1A2 is “Not Active”. Further, the Ki entry (on Cytochrome P450 2C19; in series [1]; at Cytochrome P450 1A2) was “Not Active” throughout.
Consider LIPOPOLYSACCHARIDE E. COLI O55:B5, for which the 50% inhibitory concentration (IC50) result (on Cytochrome P450 2C19; against Interstitial collagenase; at Glucocorticoid receptor; on Progesterone receptor; in series [1]; against Nitric oxide synthase 1) was “Not Active” throughout. For the same molecule, on Cytochrome P450 1A2, the 50% inhibitory concentration (IC50) entry is “Not Active”. Moreover, the inhibition constant (Ki) entry (on Cytochrome P450 2C19; on Interstitial collagenase; at Glucocorticoid receptor; at Progesterone receptor; in series [1]; at Nitric oxide synthase 1) was “Not Active” in each case. Further, at Cytochrome P450 1A2, the Ki entry is reported as “Not Active”.
In the case of `CC(O)CO` (stereo not given) [PROPYLENE GLYCOL], the IC50 result (at Cytochrome P450 2C19; against Interstitial collagenase; against Glucocorticoid receptor; on Progesterone receptor; in series [1]; on Nitric oxide synthase 1) was “Not Active” each time. For the same molecule, at Cytochrome P450 1A2, the IC50 result is on record as “Not Active”. Moreover, the inhibition constant Ki result (on Cytochrome P450 2C19; in series [1]; at Cytochrome P450 1A2) was “Not Active” in each case.
With `Cc1ccccc1N1C(=O)c2cc(S(N)(=O)=O)c(Cl)cc2NC1C` (stereo not given) [METOLAZONE], the IC50 entry (against Cytochrome P450 2C19; on Interstitial collagenase; on Glucocorticoid receptor; on Progesterone receptor; in series [1]; on Nitric oxide synthase 1) was “Not Active” in each case. The IC50 result against Cytochrome P450 1A2 is recorded as “Not Active”. The Ki entry (at Cytochrome P450 2C19; in series [1]; on Cytochrome P450 1A2) was “Not Active” each time.
Turning to `Cc1ccc(N(CC2=NCCN2)c2cccc(O)c2)cc1` [PHENTOLAMINE], the IC50 result (at Cytochrome P450 2C19; against Interstitial collagenase; at Glucocorticoid receptor; at Progesterone receptor; in series [1]; against Nitric oxide synthase 1) was “Not Active” throughout. In addition, the IC50 entry on Cytochrome P450 1A2 is listed as “Not Active”. Further, the Ki entry (on Cytochrome P450 2C19; in series [1]; on Cytochrome P450 1A2) was “Not Active” throughout.
`Nc1nc2c(ncn2CCC(CO)CO)c(=O)[nH]1` [PENCICLOVIR]: the IC50 result (against Cytochrome P450 2C19; against Interstitial collagenase; at Glucocorticoid receptor; on Progesterone receptor; in series [1]; at Nitric oxide synthase 1) was “Not Active” each time. The concentration for half-maximal inhibition (IC50) result on Cytochrome P450 1A2 is on record as “Not Active”. Further, the Ki entry (on Cytochrome P450 2C19; in series [1]; on Cytochrome P450 1A2) was “Not Active” throughout.
For the molecule `Cc1cc(C(C#N)c2ccc(Cl)cc2)c(Cl)cc1NC(=O)c1cc(I)cc(I)c1O` (stereo not given) [CLOSANTEL], the IC50 result (against Cytochrome P450 2C19; against Interstitial collagenase; against Glucocorticoid receptor; on Progesterone receptor; in series [1]; against Nitric oxide synthase 1) was “Not Active” throughout. In addition, the IC50 entry on Cytochrome P450 1A2 is reported as “Not Active”. The inhibition constant (Ki) result (at Cytochrome P450 2C19; in series [1]; at Cytochrome P450 1A2) was “Not Active” each time.
With `NC1=NC(=O)C(c2ccccc2)O1` (stereo not given) [PEMOLINE], the IC50 entry (against Cytochrome P450 2C19; against Interstitial collagenase; against Glucocorticoid receptor; on Progesterone receptor; in series [1]; against Nitric oxide synthase 1) was “Not Active” each time. Further, at Cytochrome P450 1A2, the IC50 entry is listed as “Not Active”. For the same molecule, the Ki entry (on Cytochrome P450 2C19; in series [1]; at Cytochrome P450 1A2) was “Not Active” each time.
In the case of `CN(C)C(=O)Oc1cc(OC(=O)N(C)C)cc(C(O)CNC(C)(C)C)c1` (stereo not given) [BAMBUTEROL], the concentration for half-maximal inhibition (IC50) result (against Cytochrome P450 2C19; on Interstitial collagenase; on Glucocorticoid receptor; at Progesterone receptor; in series [1]; against Nitric oxide synthase 1) was “Not Active” throughout. Besides, the IC50 entry on Cytochrome P450 1A2 is “Not Active”. Also, the Ki result (at Cytochrome P450 2C19; in series [1]; at Cytochrome P450 1A2) was “Not Active” each time.
As for `C[C@H]1O[C@@H](O[C@H]2[C@@H](O)C[C@H](O[C@H]3[C@@H](O)C[C@H](O[C@H]4CC[C@@]5(C)[C@H](CC[C@@H]6[C@@H]5C[C@@H](O)[C@]5(C)[C@@H](C7=CC(=O)OC7)CC[C@]65O)C4)O[C@@H]3C)O[C@@H]2C)C[C@H](O)[C@@H]1O` [DIGOXIN], the IC50 entry (against Cytochrome P450 2C19; at Interstitial collagenase; on Glucocorticoid receptor; at Progesterone receptor; in series [1]; at Nitric oxide synthase 1) was “Not Active” in each case. At Cytochrome P450 1A2, the IC50 entry is “Not Active”. Also, the Ki result (on Cytochrome P450 2C19; in series [1]; at Cytochrome P450 1A2) was “Not Active” in each case.
